Measurements reported in patent US4927958A, “Styryl ketones” (Hoffmann-La Roche Inc., priority 1987, dated 1990).

Legend:
[1] = tested on: ethanol-induced lesions of the mucous membrane of the stomach; test: Ethanol test (mucosa-protective activity); type: in vivo, male rats; conditions: rats; oral, 30 minutes prior to absolute ethanol (1 ml per rat); dosage reducing by 50% the number of lesions vs control; read-out: Ethanol Test ID 50
Method: The experimental procedure described hereinafter has been used to determine the mucosa-protective property:
The oral administration of absolute ethanol to male rats in a dosage of 1 ml per rat leads within 1 hour to bloody lesions of the mucous membrane of the stomach. Various dosages of the substances to be tested (suspended in 0.125% carboxymethylcellulose) or of the vehicle alone (control) are administered to the rats orally (1 ml per rat) 30 minutes prior to the treatment with ethanol. One hour after the administration of the ethanol the animals are sacrificed, their stomachs are examined for the presence of lesions, and the number and size of such lesions are mentioned. The ID50 is that dosage of a test substance which reduces by 50% the number of lesions in comparison to the control group.
(§1) In the following Table there are given for a series of representative compounds of formula I and for two compounds of formula II the results of the testing with respect to their mucosa-protective activity ("ethanol test") and to their gastric acid secretion-inhibiting activity. Moreover, this Table contains data concerning the acute toxicity (LD50 in the case of single oral administration to mice).

[2] = Acute toxicity (single oral administration to mice); conditions: mouse, in vivo, read-out: Toxicity LD 50
Source text: Representative compounds of formulae I and II have been investigated with respect to their mucosa-protective and gastric acid secretion-inhibiting properties as well as to their toxicity.
as §1

gastric acid secretion = test: Gastric acid secretion-inhibiting activity (pylorus ligation, Shay et al.); type: in vivo, male rats; conditions: Rattus norvegicus, 5 h; pylorus-ligated rats; intraduodenal; five hours after ligation; dosage giving 50% decrease of the secretion vs control; read-out: Gastric acid secretion-inhibition ID 50
Method: The test procedure described hereinafter was used to determine the gastric acid secretion-inhibiting activity:
The pylorus of male rats is ligated under slight ether narcosis in accordance with the procedure described by Shay et al. in Gastroenterology 5, 43 (1945). The substances to be tested, suspended in 0.5% carboxymethylcellulose, are administered intraduodenally. Control animals are treated only with the vehicle. Five hours after the ligation the animals are sacrificed, the volume and acidity of their gastric fluid are determined, and the values obtained are compared with those of control animals. The ID50 is that dosage of a test substance which brings about a 50% decrease of the secretion in comparison to the control animals.
as §1

Row | SMILES | ED50 [1] | LD50 [2] | ED50 (gastric acid secretion)
1 | COc1ccc(/C=C/C(=O)/C=C/C(=O)O)cc1 [B, (E,E)6-(4-Methoxyphenyl)-4-oxo-2,5-hexadienoic acid] | 0.7 mg/kg | 312 to 625 mg/kg | 
2 | COCCOCCOC(=O)/C=C/C(=O)/C=C/c1cccc(OC)c1 [G, 2(2-Methoxyethoxy)ethyl (E,E)6-(3-methoxyphenyl)-4-oxo-2,5-hexadienoate] | 2.7 mg/kg | 500 to 1000 mg/kg | 
3 | COc1ccc(/C=C/C(=O)/C=C\C(=O)O)cc1 [F, (2Z,5E)6-(4-Methoxyphenyl)-4-oxo-2,5-hexadienoic acid] | 0.7 mg/kg | 156 to 312 mg/kg | 
4 | COCCOCCOC(=O)C#CC(=O)/C=C/c1ccc(OC)cc1 [H, 2(2-Methoxyethoxy)ethyl (E)6-(4-methoxyphenyl)-4-oxo-5-hexen-2-ynoate] | 2.7 mg/kg | 2500 to 5000 mg/kg | 
5 | COc1cccc(/C=C/C(=O)/C=C/C(=O)O)c1 [A, (E,E)6-(3-Methoxyphenyl)-4-oxo-2,5-hexadienoic acid] | 0.8 mg/kg | 312 to 625 mg/kg | 9 mg/kg
6 | O=C(O)/C=C/C(=O)/C=C/c1ccc(F)cc1 [E, (E,E)6-(4-Fluorophenyl)-4-oxo-2,5-hexadienoic acid] | 1.9 mg/kg | 312 to 625 mg/kg | 
7 | COCCOCCOC(=O)C#CC(O)/C=C/c1ccc(OC)cc1 (stereo not drawn) [J, 2(2-Methoxyethoxy)ethyl (E)4-hydroxy-6-(4-methoxy-phenyl)-5-hexen-2-ynoate] | 3.4 mg/kg | > 4000 mg/kg | 
8 | COC(=O)/C=C\C(=O)/C=C/c1ccc(OC)cc1 [C, Methyl (2Z,5E)6-(4-methoxyphenyl)-4-oxo-2,5-hexadienoate] | 1 mg/kg | 625 to 1250 mg/kg | 
9 | COc1ccc(/C=C/C(=O)C#CC(=O)O)cc1 [D, (E)6-(4-Methoxyphenyl)-4-oxo-5-hexen-2-ynoic acid] | 0.5 mg/kg | 500 to 1000 mg/kg | 
10 | COC(=O)C#CC(O)/C=C/c1ccc(OC)cc1 (stereo not drawn) [I, Methyl (E)4-hydroxy-6-(4-methoxyphenyl)-5-hexen-2-ynoate] | 2.1 mg/kg | 1000 to 2000 mg/kg | 
